Experimental findings from patent US11369589B2, “Modulator of indoleamine 2,3-dioxygenase, preparation method and use thereof” (NANJING CAREPHAR SHENGHUI PHARMACEUTICAL CO., LTD., priority 2018, dated 2022) are described below.

Type in all cases: in vitro ADME
The nature of data set [1]: In vitro plasma conversion experiment of target compounds (Embodiment 7.5). The note with it: rat, 2 mg/mL (as Epacadostat equivalents). On the procedure: (§1) Mobile phase: acetonitrile (50% to 80%) and water gradient elution.
(§2) Flow rate: 1 mL/min at a column temperature of 25° C.
(§3) Detection wavelength: 254 nm at a sample size of 10 μL.
The target compounds were dissolved into a DMSO solvent. […] 20 μL of the solution was taken and added into 1.18 mL of fresh rat blank plasma, and incubation was carried out at 37° C. to obtain a sample.
(§4) 120 μL of the sample was precisely sucked at a specified time point each time. 120 μL of acetonitrile was added. High-speed vortex mixing was performed for 2 min. Centrifugation was performed at 10000 r/min for 15 min. Supernatant was taken and filtered by a 13 mm 0.45 μm filter membrane, and then determination could be performed.
Incubation was performed at 37° C. 120 μL of sample was taken at different time points respectively. Sample pretreatment was performed according to the method of 7.3. Determination was performed by an HPLC method. A peak area was recorded, and a drug concentration was calculated.
According to the method of 7.4, we performed in vitro plasma conversion experiment on the target compounds to test conversion rates of the compounds converted into the Epacadostat at different time points.

Data set [2] can be described thus: Original drug Epacadostat plasma stability test (Embodiment 14, 6.4). The note with it: rat plasma, 37° C. The method, then:
Liquid chromatograph: Waters 2489UV/Visible Detector, Waters 1525Binary HPLC Pump.
as §1, §2, §3
(§5) Under the condition of no mobile phase interference, the Epacadostat retention time was about 20 min.
as §4
20 μL of DMSO solution (120 mg/mL) of Epacadostat was taken and added into 1.18 mL of fresh rat blank plasma. Incubation was performed at 37° C. 120 μL of sample was taken at different time points respectively. Sample pretreatment was performed according to the method of 6.3. Determination was performed by an HPLC method. A peak area was recorded, and a drug concentration was calculated.

A short description of data set [3]: Original drug Epacadostat plasma stability test (Embodiment 7.4). The note with it: rat plasma, 37° C. The method, then: Liquid chromatograph: Waters 2489UV/Visible Detector, Waters 1525BinaryHPLC Pump.
as §1, §2, §3, §5, §4
20 μL of DMSO solution (120 mg/mL) of Epacadostat was taken and added into 1.18 mL of fresh rat blank plasma. Incubation was performed at 37° C. 120 μL of sample was taken at different time points respectively. Sample pretreatment was performed according to the method of 7.3. Determination was performed by an HPLC method. A peak area was recorded, and a drug concentration was calculated.

As for `CC(C)C(=O)O/N=C(\Nc1ccc(F)c(Br)c1)c1nonc1NCCNS(=O)(=O)N=Cc1cccs1` [II-1], the “Conversion rate into Epacadostat” value was 33.7% in data set [1] (0.5 h); 56.3% in data set [1] (1 h); 77.2% in data set [1] (2 h); 87.2% in data set [1] (3 h); 93.8% in data set [1] (6 h); 100% in data set [1] (12 h).

Turning to `CCCC(=O)O/N=C(\Nc1ccc(F)c(Br)c1)c1nonc1NCCNS(=O)(=O)N=Cc1ccc(N(C)C)cc1` [II-3], the “Conversion rate into Epacadostat” value in data set [1] (0.5 h) was determined as 31.1%; in data set [1] (1 h), 43.1%; in data set [1] (2 h) it was 58.3%; in data set [1] (3 h), 70.3%; in data set [1] (6 h), 88.3%; in data set [1] (12 h), 98.3%.

Regarding `NS(=O)(=O)NCCNc1nonc1C(=NO)Nc1ccc(F)c(Br)c1` [Epacadostat], the “Epacadostat concentration in plasma” value in data set [2] (time 1 h) amounted to 1.22 mg/mL; in data set [2] (time 3 h) it was 1.20 mg/mL; in data set [2] (time 6 h), 1.24 mg/mL; in data set [2] (time 24 h), 1.20 mg/mL; in data set [3] (time 1 h), 1.22 mg/mL; in data set [3] (time 3 h) it was 1.20 mg/mL. The “Epacadostat concentration in plasma” value stood at 1.24 mg/mL in data set [3] (time 6 h) and 1.20 mg/mL in data set [3] (time 24 h). For the same compound, the “Stability in plasma (in words)” value in data set [2] (up to 24 h) and in data set [3] (up to 24 h) was “can stably exist in the plasma” each time.

For the compound `CCCCC(=O)O/N=C(\Nc1ccc(F)c(Br)c1)c1nonc1NCCNS(=O)(=O)N=Cc1ccc(Cl)s1` [II-4], the “Conversion rate into Epacadostat” value in data set [1] (0.5 h) is recorded as 47.2%; in data set [1] (1 h), 49.0%; in data set [1] (2 h) it was 51.6%; in data set [1] (3 h), 75.2%; in data set [1] (6 h), 89.6%; in data set [1] (12 h), 100%.
